Test results from ChEMBL document CHEMBL4002553, “Dragmacidins G and H, Bisindole Alkaloids Tethered by a Guanidino Ethylthiopyrazine Moiety, from a Lipastrotethya sp. Marine Sponge” (J Nat Prod, 2016).

System: HeLa
Assay: Cytotoxicity against human HeLa cells after 72 hrs by MTT assay
Assay type: functional, cell-based

Row | Compound | IC50
1 | N=C(N)NCCSc1nc(-c2c[nH]c3cc(Br)ccc23)cnc1-c1c[nH]c2cc(Br)ccc12 | 4.2 µM
2 | N=C(N)NCCSc1nc(-c2c[nH]c3ccccc23)cnc1-c1c[nH]c2cc(Br)ccc12 | 4.6 µM
3 | O=C(c1nc(-c2c[nH]c3cc(Br)ccc23)c[nH]1)c1c[nH]c2cc(O)ccc12 [BROMOTOPSENTIN] | 1.7 µM
4 | O=C(c1nc(-c2c[nH]c3ccccc23)c[nH]1)c1c[nH]c2cc(O)ccc12 [TOPSENTIN] | 4.4 µM
